Test results as given in US20100105628A1, “REDUCING POST-OPERATIVE ADHESION FORMATION WITH INTRAPERITONEAL GLUTAMINE” (UNIVERSITY OF SASKATCHEWAN, priority 2007, published 2010).
Converted amounts (≈) assume the structure as drawn. Peptide text beside a SMILES is read from it.

What was measured:
[1] = cited from earlier work
[2] = tested on: male Wistar rats; assay: modified cecal puncture with pulstring, post-operative adhesion formation (Example 1); type: in vivo, rat; conditions: for complications due to intraperitoneal use: 0.3-1.5 g/kg intra-peritoneally; for acute inflammatory response (macrophages and macrophage chemotactic proteins): days 3-7
Method: 70 plus male Wistar rats (over 350 g each) were assessed histologically on post-operative days 1, 3, 5, 7, 10, 30, and at about 6 weeks. The rats were randomly distributed based on the mode of treatment, type of sutures and presence or absence of hemorrhage during surgery. Initially, there were three surgery groups (alanyl-glutamine treatment, saline, no treatment) plus a control (no surgery). A fifth group using L-glutamine instead of alanyl-glutamine was included after preliminary results were obtained.
The rats were anaesthetized with halothane/Ketamine. Open surgery involving a midline sub-umbilical incision and a modified cecal puncture with pulstring to prevent soilage after abdominal closure was done. The procedure involved some fecal extrusion, mimicking clinical scenarios of iatrogenic/traumatic perforations of the bowel. Alanyl-glutamine [Degussa; Coubevoie, France] (0.3 g/kg-1.5 g/kg); saline (5 ml); or L-glutamine [Wiler; PCCA] (1.5 g/kg) was instilled into the peritoneal cavity from a syringe. The cecum, abdomen, and the skin were closed in layers using the same suture. Various absorbable (3/0 Vicryl™, 3/0 Monocryl™, 3/0 PDS™, 2/0 Maxon™) and non-absorbable sutures (3/0 Prolene™, 3/0 Ethibond™, 4/0 & 5/0 Surgilene™, 3/0 Novafil™) were used. The wound was infiltrated with local anesthetic. The animals were given sufficient chow to eat (20 g/day≈2 mmole/kg/day). The gastrointestinal tract and omentum were harvested from the stomach to the sigmoid colon and fixed in formaldehyde solution for evaluation.
The severity of adhesions was assessed histologically using standard Haematoxylin & Eosin and Masson trichrome stained slides. The latter helped delineate the degree of fibrosis and collagen deposition.
Semi-quantitative analysis was done by scoring the average number of milky spots per high-power-field (HPF). Quantitative statistical analysis was done using the T-test between the experimental groups. Milky spots are a marker for inflammation and adhesion formation.
We evaluated macrophage activity following the abdominal surgery using a macrophage chemotactic protein (MCP1) antibody stain. MCP1 is a marker for macrophage activity. […] The fact that MCP1 was reduced by the treatment but was not completely absent is significant since complete absence is not desirable as it is associated with peritonitis and septic complications post-laparotomy.

[3] = tested on: rats; assay: cecal puncture with Marlex mesh inserted, adhesion score of Zuhlke (Example 2); type: in vivo, rat; conditions: day 90
Method: Previous studies show a high incidence of adhesion formation when surgical mesh is employed as a reinforcing material [6a, 6b]. We repeated trials as described in Example 1, inserting Marlex™ mesh during the procedure on the surgical groups.
Severity of adhesions was assessed at day 90 using the adhesion score of Zuhlke, et al.. This scoring procedure has been described in the literature for assessment of other potential treatments for adhesions. […] This differs from previous measurements of adhesions using polypropylene mesh which reported up to about 90% adhesion formation [6a].

[4] = tested on: Sprague-Dawley rats; assay: secondary adhesions after adhesiolysis, mesh implanted (Example 3); type: in vivo, rat; conditions: three weeks after adhesiolysis and alanyl-glutamine; six months after initial surgery with mesh
Method: Adhesions tend to recur once in place. We examined the effect of alanyl-glutamine treatment on such secondary adhesions. The modified cecal perforation with pulstring closure procedure described in Example 1 was performed on 9 Sprague-Dawley rats. These were divided into 5 groups, each group receiving a different form of mesh (INTERCEED™; PROCEED™; BARD™ composite; prolene; and a mesh which was allowed to be “infected” by repeated re-opening of the wound). The surgical procedure with mesh implacement was performed without application of a glutamine source. Six months after initial surgery, a laparotomy was performed on each rat then adhesiolysis followed by installation of alanyl-glutamine.

[5] = versus saline and non-treatment surgical groups

| complications due to intraperitoneal use [2] | Compound | solubility in water [1] [mg/mL] | acute inflammatory response (macrophages and macrophage chemotactic proteins) [2, 5] | water solubility ([1]; at 20° C.) [mg/mL] | effectiveness of dosage ([2]; 0.3 g/kg intraperitoneal) | effectiveness of dosage ([2]; 1.5 g/kg intraperitoneal) | histological appearance of the peritoneum, adhesion ([2]; 10th post-operative day, intraperitoneal, compared with untreated and saline treated surgical groups) | fibrosis and collagen deposition ([2]; day-10 animals, versus saline and non-treatment surgical groups) | milky spots per 5 high power field (5HPF) ([2]; peritoneum, controls 1 per 5HPF, untreated surgical group 6-7 per 5HPF) | adhesions in all the suture groups (braided and monofilament) ([2]; rat, in vivo) | adhesion, histological, later assessment ([2]; rats assessed at 6 weeks) | adhesion score of Zuhlke [3] | recurrence of adhesions (secondary adhesions), scored according to Zuhlke [4] |
| --- | --- | --- | --- | --- | --- | --- | --- | --- | --- | --- | --- | --- | --- |
|  | NCC(=O)N[C@@H](CCC(N)=O)C(=O)O [Glycyl-glutamine] (H-Gly-Gln-OH) | 154 (≈ 758 mM) |  |  |  |  |  |  |  |  |  |  |  |
| did not observe complications | NC(=O)CC[C@H](N)C(=O)O [L-glutamine] |  | reduction, but to a lesser extent | 36 (≈ 246 mM) |  |  |  |  |  |  |  |  |  |
| did not observe complications | C[C@H](N)C(=O)N[C@@H](CCC(N)=O)C(=O)O [alanyl-glutamine] (H-Ala-Gln-OH) | 568 (≈ 2610 mM) | markedly reduced |  | effective | effective | very minimal adhesion | reduced | the same as the controls | prevented adhesions | This result continued | 0-1 | no secondary adhesions were seen |
